Patent US11186607B1, “Pleuromutilin ursodeoxycholic acid ester with antibacterial activity and a method of preparing the same” (Xi'an Taikomed Pharmaceutical Technology Co., Ltd., priority 2020, dated 2021)

What was measured:
Format in all cases: cell-based, Staphylococcus aureus
MRSA-575 = test: paper diffusion drug sensitivity test, MRSA-575; conditions: for Zone of inhibition: MRSA-575, drug sensitive paper 30 μg/tablet, LB plate, 37° C., 24 h; for inhibitory effect (in words): multi-drug resistant Staphylococcus aureus 575, summary of FIGS. 1-3 and Table 1
Protocol: (§1) The antimicrobial efficacy was determined by a paper diffusion drug sensitivity test.
(§2) Experimental strains: multi-resistant Staphylococcus aureus 206, multi-resistant Staphylococcus aureus 575, multi-resistant Staphylococcus aureus 596. The experimental strains were provided by Huashan Hospital Affiliated to Fudan University (Institute of Antibiotic of Fudan University).
(§3) Drug sensitive paper: The drug sensitive paper was a special drug sensitive paper with a diameter of 6.35 mm and a water absorption of 0.02 mL. The control drug was vancomycin (30 μg/tablet); the test drugs were pleuromulin (30 μg/tablet), ursodeoxycholic acid (30 μg/tablet) and pleuromulin ursodeoxycholic acid ester (30 μg/tablet).
(§4) The experimental strains were inoculated in non-selective medium and placed in air at 37° C. for 24 h. Pick a single colony that grows well and inoculate it into broth medium, incubate at 35° C.±2° C. for 6 hours, and use LA broth medium to calibrate the concentration of the bacterial solution to 0.5 Mie turbidimetric tube (1.5×10^8 CFU/mL). A bacterial suspension is obtained.
(§5) Weigh the LB dry powder, sterilize at 103.4 Kpa, 121.3° C. high-pressure steam for 15 min, and then put it in a 40° C.-50° C. water bath. Place a sterile empty plate (inner diameter 9 cm) on the surface of the ultra-clean table water table, shake and shake LB, and then pour the plate. The thickness of each plate is 3 mm to 4 mm. After the plate is cooled at room temperature, store it in the refrigerator at 2° C.-8° C. Use a sterile cotton swab to dip the bacterial solution, and evenly coat the surface of the LB plate 3 times. After inoculation of the bacterial suspension, the LB plate was dried at room temperature for 3 min to 5 min. Use sterile forceps to closely attach the antibacterial drug paper to the dish. Put the dish upside down and place it in a 37° C. incubator for 24 h. Observe the result and measure the diameter. Taking 0.5% DMSO solution as a negative control, the antibacterial activity is expressed by the diameter of the inhibition zone. The inhibition zone ≥17 mm, sensitive; the inhibition zone is 15 mm˜16 mm, intermediary; the inhibition zone ≤14 mm, drug resistance.

MRSA-171 = test: paper diffusion drug sensitivity test, MRSA-171; conditions: for Zone of inhibition: MRSA-171, drug sensitive paper 30 μg/tablet, LB plate, 37° C., 24 h; for inhibitory effect (in words): multi-drug resistant Staphylococcus aureus 171, summary of FIGS. 1-3 and Table 1
Protocol: [Worded in the source for another organism; this organism is reported under the same test.] as §1, §2, §3, §4, §5

MRSA-596 = test: paper diffusion drug sensitivity test, MRSA-596; conditions: for Zone of inhibition: MRSA-596, drug sensitive paper 30 μg/tablet, LB plate, 37° C., 24 h; for inhibitory effect (in words): multi-drug resistant Staphylococcus aureus 596, summary of FIGS. 1-3 and Table 1
Protocol: as §1, §2, §3, §4, §5

`CN[C@H](CC(C)C)C(=O)N[C@H]1C(=O)N[C@@H](CC(N)=O)C(=O)N[C@H]2C(=O)N[C@H]3C(=O)N[C@H](C(=O)N[C@H](C(=O)O)c4cc(O)cc(O)c4-c4cc3ccc4O)[C@H](O)c3ccc(c(Cl)c3)Oc3cc2cc(c3O[C@@H]2O[C@H](CO)[C@@H](O)[C@H](O)[C@H]2O[C@H]2C[C@](C)(N)[C@H](O)[C@H](C)O2)Oc2ccc(cc2Cl)[C@H]1O` [Vancomycin] showed a Zone of inhibition (MRSA-575) of 17 mm, a Zone of inhibition (MRSA-171) of 17 mm and a Zone of inhibition (MRSA-596) of 23 mm.
`C=C[C@]1(C)C[C@@H](OC(=O)CO)[C@]2(C)[C@H](C)CC[C@]3(CCC(=O)[C@H]32)[C@@H](C)[C@@H]1O` [Pleuromulin] was tested, and the Zone of inhibition (MRSA-575) was 0 mm, the “inhibitory effect (in words)” value (MRSA-575) was “no inhibitory effect” and the Zone of inhibition (MRSA-171) was 0 mm. The “inhibitory effect (in words)” value (MRSA-171) was “no inhibitory effect”, the Zone of inhibition (MRSA-596) was 0 mm and the “inhibitory effect (in words)” value (MRSA-596) was “no inhibitory effect”.
`C=C[C@]1(C)C[C@@H](OC(=O)COC(=O)CC[C@@H](C)[C@H]2CCC3[C@@H]4[C@@H](O)C[C@@H]5C[C@H](O)CC[C@]5(C)[C@H]4CC[C@@]32C)[C@]2(C)CC[C@@H](C)[C@@]3(CCC(=O)[C@@H]23)[C@@H](C)[C@@H]1O` (stereo partly drawn) [Pleuromulin ursodeoxycholic acid ester, (4R)-2-(((3aS,4R,5S,6S,8R,9R,9aR,12R)-5-hydroxy-4,6,9,12-tetramethyl-1-oxo-6-vinyldecahydro-3a,9-propanocyclopenta[8]annulen-8-yl)oxy)-2-oxoethyl 4-((3R,5 S,7 S, 8R,9 S, 10 S,13R,17R)-3,7-dihydroxy-10,13-dimethylhexadecahydro-1H-cyclopenta[a]phenanthren-17-yl)pentanoate] was tested, and the Zone of inhibition (MRSA-575) was 13 mm, the Zone of inhibition (MRSA-575; listed as pleuromutilin ursodeoxycholic acid ester) was “up to 13 mm” and the “inhibitory effect (in words)” value (MRSA-575) was “strong inhibitory effects”. For the same compound, the Zone of inhibition (MRSA-171) was 11 mm, the “inhibitory effect (in words)” value (MRSA-171) was “strong inhibitory effects” and the Zone of inhibition (MRSA-596) was 12 mm. The “inhibitory effect (in words)” value (MRSA-596) was “strong inhibitory effects”.
For `C[C@H](CCC(=O)O)[C@H]1CC[C@H]2[C@@H]3[C@@H](O)C[C@@H]4C[C@H](O)CC[C@]4(C)[C@H]3CC[C@]12C` [Ursodeoxycholic acid], the Zone of inhibition (MRSA-575) was 0 mm, the “inhibitory effect (in words)” value (MRSA-575) was “no inhibitory effect” and the Zone of inhibition (MRSA-171) was 0 mm. The “inhibitory effect (in words)” value (MRSA-171) was “no inhibitory effect”, the Zone of inhibition (MRSA-596) was 0 mm and the “inhibitory effect (in words)” value (MRSA-596) was “no inhibitory effect”.
